{
  "source": "paper PMC5863483",
  "about": "“Low HLA binding of diabetes-associated CD8+ T-cell epitopes is increased by post translational modifications” (BMC Immunology, 2018)",
  "target": "HLA-A*02:01 (Homo sapiens, UniProt P04439, D140Y/D185E/D98H/E176V/E277Q/G131W/G231S/I119V/I121R/I166T/I218V/L300P/L318F/N151K/N90K/P208A/P217A/Q86G/Q94H/R138H/R169H/T345S)",
  "test": "HLA-peptide competition binding assay, A*02:01",
  "key": {"[1]": {"conditions": "post-translationally modified insulin peptide, competition binding assay, a dash indicates IC50 >40,000 nM, read-out: A*02:01 binding (IC50 nM) Modified"}, "[2]": {"conditions": "read-out: A*02:01 binding (IC50 nM) Modified"}},
  "note": "Where two headings read alike, the source gives them in different places. *1 amine or outer side, *2 acyl side, *3 side chain or, on linkers, in order; H or OH if unused. Where a SMILES comes first, the peptide text is derived from it. [ ]: non-standard residue; d: D form. Tyr(3-Cl) = N[C@@H](Cc1ccc(O)c(Cl)c1)C(=O)O; γGlu = O=C(O)[C@H](CCC(=O)[*:2])N[*:1]; βAsp = O=C(O)[C@H](CC(=O)[*:2])N[*:1]; Cya = N[C@@H](CS(=O)(=O)O)C(=O)O; Cit = NC(=O)NCCC[C@H](N)C(=O)O",
  "data": [
    {"smiles": "CC(C)C[C@H](NC(=O)[C@H](Cc1c[nH]cn1)NC(=O)[C@H](CCC(N)=O)NC(=O)[C@@H](N)CC(N)=O)C(=O)N[C@@H](CS(=O)(=O)O)C(=O)NCC(=O)N[C@@H](CO)C(=O)N[C@@H](Cc1c[nH]cn1)C(=O)N[C@@H](CC(C)C)C(=O)N[C@H](C(=O)O)C(C)C", "note": "[NQHLBGSHLV] (H-NQHL[Cya]GSHLV-OH; N-terminus and C-terminus assumed)", "values": [
      {"measurement": "IC50", "setting": "[1]", "value": "> 40000", "unit": "nM"}
    ]},
    {"smiles": "CC(C)C[C@H](NC(=O)[C@H](Cc1c[nH]cn1)NC(=O)[C@H](CO)NC(=O)CNC(=O)[C@H](CS(=O)(=O)O)NC(=O)[C@H](CC(C)C)NC(=O)[C@H](Cc1c[nH]cn1)NC(=O)[C@H](CCC(N)=O)NC(=O)[C@@H](N)CC(N)=O)C(=O)O", "note": "[NQHLBGSHL] (H-NQHL[Cya]GSHL-OH; N-terminus and C-terminus assumed)", "values": [
      {"measurement": "IC50", "setting": "[1]", "value": "> 40000", "unit": "nM"}
    ]},
    {"smiles": "CC(C)C[C@H](NC(=O)[C@H](Cc1c[nH]cn1)NC(=O)CC[C@H](NC(=O)C[C@H](N)C(=O)O)C(=O)O)C(=O)N[C@@H](CS)C(=O)NCC(=O)N[C@@H](CO)C(=O)N[C@@H](Cc1c[nH]cn1)C(=O)N[C@@H](CC(C)C)C(=O)N[C@H](C(=O)O)C(C)C", "note": "[OZHLCGSHLV] ({βAsp-γGlu}-HLCGSHLV-OH; N-terminus and C-terminus assumed)", "values": [
      {"measurement": "IC50", "setting": "[1]", "value": "> 40000", "unit": "nM"}
    ]},
    {"smiles": "CC(C)C[C@H](NC(=O)[C@H](Cc1c[nH]cn1)NC(=O)[C@H](CO)NC(=O)CNC(=O)[C@H](CS)NC(=O)[C@H](CC(C)C)NC(=O)[C@H](Cc1c[nH]cn1)NC(=O)CC[C@H](NC(=O)C[C@H](N)C(=O)O)C(=O)O)C(=O)O", "note": "[OZHLCGSHL] ({βAsp-γGlu}-HLCGSHL-OH; N-terminus and C-terminus assumed)", "values": [
      {"measurement": "IC50", "setting": "[1]", "value": "> 40000", "unit": "nM"}
    ]},
    {"smiles": "C[C@H](NC(=O)[C@H](CCC(=O)O)NC(=O)[C@H](CCCNC(N)=O)NC(=O)[C@H](CCCNC(N)=O)NC(=O)[C@@H](NC(=O)[C@H](CCCCN)NC(=O)[C@@H]1CCCN1)[C@@H](C)O)C(=O)N[C@@H](CCC(=O)O)C(=O)N[C@@H](CC(=O)O)C(=O)O", "note": "[PKTUUEAED] (H-PKT[Cit][Cit]EAED-OH; N-terminus and C-terminus assumed)", "values": [
      {"measurement": "IC50", "setting": "[1]", "value": "> 40000", "unit": "nM"}
    ]},
    {"smiles": "CC(C)C[C@H](NC(=O)[C@H](Cc1c[nH]cn1)NC(=O)[C@@H](N)CCC(N)=O)C(=O)N[C@@H](CS(=O)(=O)O)C(=O)NCC(=O)N[C@@H](CO)C(=O)N[C@@H](Cc1c[nH]cn1)C(=O)N[C@@H](CC(C)C)C(=O)N[C@H](C(=O)N[C@@H](CCC(=O)O)C(=O)O)C(C)C", "note": "[QHLBGSHLVE] (H-QHL[Cya]GSHLVE-OH; N-terminus and C-terminus assumed)", "values": [
      {"measurement": "IC50", "setting": "[1]", "value": "> 40000", "unit": "nM"}
    ]},
    {"smiles": "CC(C)C[C@H](NC(=O)[C@H](Cc1c[nH]cn1)NC(=O)[C@@H](N)CCC(N)=O)C(=O)N[C@@H](CS(=O)(=O)O)C(=O)NCC(=O)N[C@@H](CO)C(=O)N[C@@H](Cc1c[nH]cn1)C(=O)N[C@@H](CC(C)C)C(=O)N[C@H](C(=O)O)C(C)C", "note": "[QHLBGSHLV] (H-QHL[Cya]GSHLV-OH)", "values": [
      {"measurement": "IC50", "setting": "[2]", "value": 37900, "unit": "nM"}
    ]},
    {"smiles": "CC(C)C[C@H](NC(=O)[C@H](C)NC(=O)[C@H](CCC(=O)O)NC(=O)[C@@H](NC(=O)[C@H](CC(C)C)NC(=O)[C@H](Cc1c[nH]cn1)NC(=O)[C@@H](N)CO)C(C)C)C(=O)N[C@@H](Cc1ccc(O)c(Cl)c1)C(=O)N[C@@H](CC(C)C)C(=O)N[C@H](C(=O)O)C(C)C", "note": "[SHLVEALJLV] (H-SHLVEAL[Tyr(3-Cl)]LV-OH)", "values": [
      {"measurement": "Fold increase", "setting": "increase of A*02:01 binding of the modified peptide compared to the WT peptide", "value": 2.02, "unit": "fold"}
    ]},
    {"smiles": "CC[C@H](C)[C@H](NC(=O)CNC(=O)[C@H](CCCNC(N)=O)NC(=O)[C@H](CCCCN)NC(=O)[C@H](CCC(N)=O)NC(=O)[C@H](CC(C)C)NC(=O)[C@@H](N)CO)C(=O)N[C@H](C(=O)N[C@@H](CCC(=O)O)C(=O)O)C(C)C", "note": "[SLQKUGIVE] (H-SLQK[Cit]GIVE-OH; N-terminus and C-terminus assumed)", "values": [
      {"measurement": "IC50", "setting": "[1]", "value": "> 40000", "unit": "nM"}
    ]},
    {"smiles": "C[C@H](NC(=O)[C@H](CCC(=O)O)NC(=O)[C@H](CCCNC(N)=O)NC(=O)[C@H](CCCNC(N)=O)NC(=O)[C@@H](NC(=O)[C@H](CCCCN)NC(=O)[C@@H]1CCCN1C(=O)[C@@H](N)[C@@H](C)O)[C@@H](C)O)C(=O)N[C@@H](CCC(=O)O)C(=O)N[C@@H](CC(=O)O)C(=O)O", "note": "[TPKTUUEAED] (H-TPKT[Cit][Cit]EAED-OH; N-terminus and C-terminus assumed)", "values": [
      {"measurement": "IC50", "setting": "[1]", "value": "> 40000", "unit": "nM"}
    ]},
    {"smiles": "CC(C)[C@H](N)C(=O)N[C@@H](CS(=O)(=O)O)C(=O)NCC(=O)N[C@@H](CCC(=O)O)C(=O)N[C@@H](CCCNC(=N)N)C(=O)NCC(=O)N[C@@H](Cc1ccc(O)cc1)C(=O)N[C@@H](Cc1ccc(O)cc1)C(=O)N[C@@H](Cc1ccc(O)cc1)C(=O)N[C@H](C(=O)O)[C@@H](C)O", "note": "[VBGERGYYYT] (H-V[Cya]GERGYYYT-OH; N-terminus and C-terminus assumed)", "values": [
      {"measurement": "IC50", "setting": "[1]", "value": "> 40000", "unit": "nM"}
    ]},
    {"smiles": "CC(C)[C@H](N)C(=O)N[C@@H](CS(=O)(=O)O)C(=O)NCC(=O)N[C@@H](CCC(=O)O)C(=O)N[C@@H](CCCNC(=N)N)C(=O)NCC(=O)N[C@@H](Cc1ccc(O)cc1)C(=O)N[C@@H](Cc1ccc(O)cc1)C(=O)N[C@@H](Cc1ccc(O)cc1)C(=O)O", "note": "[VBGERGYYY] (H-V[Cya]GERGYYY-OH; N-terminus and C-terminus assumed)", "values": [
      {"measurement": "IC50", "setting": "[1]", "value": "> 40000", "unit": "nM"}
    ]},
    {"smiles": "CC(C)C[C@H](NC(=O)[C@H](Cc1c[nH]cn1)NC(=O)[C@H](CO)NC(=O)CNC(=O)[C@H](CS(=O)(=O)O)NC(=O)[C@H](CC(C)C)NC(=O)[C@H](Cc1c[nH]cn1)NC(=O)[C@H](CCC(N)=O)NC(=O)[C@H](CC(N)=O)NC(=O)[C@@H](N)C(C)C)C(=O)O", "note": "[VNQHLBGSHL] (H-VNQHL[Cya]GSHL-OH; N-terminus and C-terminus assumed)", "values": [
      {"measurement": "IC50", "setting": "[1]", "value": "> 40000", "unit": "nM"}
    ]},
    {"smiles": "CC(C)C[C@H](NC(=O)[C@H](Cc1c[nH]cn1)NC(=O)[C@H](CCC(N)=O)NC(=O)[C@H](CC(N)=O)NC(=O)[C@@H](N)C(C)C)C(=O)N[C@@H](CS(=O)(=O)O)C(=O)NCC(=O)N[C@@H](CO)C(=O)N[C@@H](Cc1c[nH]cn1)C(=O)O", "note": "[VNQHLBGSH] (H-VNQHL[Cya]GSH-OH; N-terminus and C-terminus assumed)", "values": [
      {"measurement": "IC50", "setting": "[1]", "value": "> 40000", "unit": "nM"}
    ]},
    {"smiles": "CC(C)C[C@H](NC(=O)[C@H](Cc1c[nH]cn1)NC(=O)[C@H](CO)NC(=O)CNC(=O)[C@H](CS)NC(=O)[C@H](CC(C)C)NC(=O)[C@H](Cc1c[nH]cn1)NC(=O)CC[C@H](NC(=O)C[C@H](NC(=O)[C@@H](N)C(C)C)C(=O)O)C(=O)O)C(=O)O", "note": "[VOZHLCGSHL] (H-V[βAsp][γGlu]HLCGSHL-OH; N-terminus and C-terminus assumed)", "values": [
      {"measurement": "IC50", "setting": "[1]", "value": "> 40000", "unit": "nM"}
    ]},
    {"smiles": "CC(C)C[C@H](NC(=O)[C@H](Cc1c[nH]cn1)NC(=O)CC[C@H](NC(=O)C[C@H](NC(=O)[C@@H](N)C(C)C)C(=O)O)C(=O)O)C(=O)N[C@@H](CS)C(=O)NCC(=O)N[C@@H](CO)C(=O)N[C@@H](Cc1c[nH]cn1)C(=O)O", "note": "[VOZHLCGSH] (H-V[βAsp][γGlu]HLCGSH-OH; N-terminus and C-terminus assumed)", "values": [
      {"measurement": "IC50", "setting": "[1]", "value": "> 40000", "unit": "nM"}
    ]},
    {"smiles": "CSCC[C@H](NC(=O)[C@@H](N)Cc1c[nH]c2ccccc12)C(=O)N[C@@H](CCCNC(N)=O)C(=O)N[C@@H](CC(C)C)C(=O)N[C@@H](CC(C)C)C(=O)N1CCC[C@H]1C(=O)N[C@@H](CC(C)C)C(=O)N[C@@H](CC(C)C)C(=O)N[C@@H](C)C(=O)N[C@@H](CC(C)C)C(=O)O", "note": "[WMULLPLLAL] (H-WM[Cit]LLPLLAL-OH)", "values": [
      {"measurement": "IC50", "value": 310, "unit": "nM"}
    ]},
    {"smiles": "CC(C)C[C@H](NC(=O)[C@@H](N)Cc1ccc(O)cc1)C(=O)N[C@H](C(=O)N[C@@H](CS(=O)(=O)O)C(=O)NCC(=O)N[C@@H](CCC(=O)O)C(=O)N[C@@H](CCCNC(=N)N)C(=O)NCC(=O)N[C@@H](Cc1ccc(O)cc1)C(=O)N[C@@H](Cc1ccc(O)cc1)C(=O)O)C(C)C", "note": "[YLVBGERGYY] (H-YLV[Cya]GERGYY-OH)", "values": [
      {"measurement": "IC50", "setting": "[2]", "value": 2420, "unit": "nM"}
    ]}
  ]
}
